This note sets out measurements from US20110002877A1, “PTEN Inhibitors Treat Neutropenia-Associated Pneumonia” (priority 2009, published 2011).

For the data set, the system named is circulating neutrophils. As to conditions: day 5; two i.p. injections, total 250 mg/kg (150 mg/kg day 1, 100 mg/kg day 4).

Text: We first examined neutrophil recruitment and its bacteria-killing capability under neutropenic conditions. We induced neutropenia using a widely used chemotherapeutic drug, cyclophosphamide (Cy), which is used primarily to treat cancer.
We also examined neutrophil recruitment and its bacteria-killing capability under neutropenic conditions. We induced neutropenia using a widely used chemotherapeutic drug, cyclophosphamide (Cy).

Regarding `O=P1(N(CCCl)CCCl)NCCCO1` (stereo not shown) [Cy, cyclophosphamide], the “fewer circulating neutrophils than the untreated group” value was “approximately 90%”.
